Data as given in ChEMBL document CHEMBL5634091, “Cantharidin analogue alleviates dextran sulfate sodium-induced colitis in mice by inhibiting the activation of NF-κB signaling” (Eur J Med Chem, 2023).
Active and inactive are the calls of the source. The calls are words filed in the database; no cut-off is given here.

What was measured:
[1] = Cytotoxicity against LPS/IFNgamma induced mouse RAW264.7 cells assessed as inhibition of cell growth preincubated for 24 hrs followed by LPS/IFNgamma stimulation and measured after 24 hrs by SRB assay; assay type: toxicity, cell-based; conditions: RAW264.7 cells induced with LPS/IFNgamma, time 48 hrs
[2] = Selectivity index, ratio of CC50 for cytotoxicity against LPS/IFNgamma induced mouse RAW264.7 cells to IC50 for antiinflammatory activity in mouse RAW264.7 cells assessed as inhibition in LPS/IFNgamma-induced NO production; assay type: toxicity, cell-based; conditions: RAW264.7 cells induced with LPS/IFNgamma, read-out: Ratio IC50
[3] = Toxicity in Kunming mouse assessed as increase in body weight at 400 mg/kg, po measured for 15 days (reference value: 12.38%); assay type: organism-based; conditions: in vivo, 360 h, time 15 day
[4] = system: DLD-1; assay: Inhibition of TNF-alpha-induced NF-kappaB nuclear translocation in human DLD-1 cells preincubated for 4 hrs followed by TNF-alpha stimulation and measured after 30 mins by immunofluorescence staining based laser scanning confocal microscopic analysis; assay type: cell-based; conditions: dose 25-50 µM, time 4.5 hrs
[5] = system: HCT-116; assay: Inhibition of TNF-alpha induced NF-kB activation in human HCT-116 cells assessed as decrease in phosphorylated IKK protein expression preincubated for 4 hrs and followed TNF-alpha stimulation and measured after 10 mins by Western blot analysis; assay type: cell-based; conditions: dose 12.5-50 µM, time 250.0 min
[6] = biological target: T1, NF-kappa-B inhibitor alpha (Homo sapiens) (UniProt P25963); assay: Inhibition of proteasomal degradation of IkappaBalpha in TNF-alpha induced human HCT-116 cells assessed as increase in IkappaBalpha protein expression at 12.5 to 50 uM preincubated for 4 hrs and followed TNF-alpha stimulation and measured after 10 mins by Western blot analysis; assay type: cell-based; conditions: dose 12.5-50 µM, time 250.0 min
T1 sequence (whole entry): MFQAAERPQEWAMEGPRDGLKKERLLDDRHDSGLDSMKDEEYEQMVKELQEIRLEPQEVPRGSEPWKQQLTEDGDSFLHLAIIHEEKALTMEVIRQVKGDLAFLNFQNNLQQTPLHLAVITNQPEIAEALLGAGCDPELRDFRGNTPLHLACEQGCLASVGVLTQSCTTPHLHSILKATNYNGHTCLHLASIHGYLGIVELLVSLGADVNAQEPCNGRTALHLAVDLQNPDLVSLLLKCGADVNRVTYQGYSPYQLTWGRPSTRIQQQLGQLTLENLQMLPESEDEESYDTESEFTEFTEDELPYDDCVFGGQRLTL

[7] = system: DLD-1; assay: Activation of MAPK signaling pathway in TNF-alpha stimulated human DLD-1 cells assessed as increase in phospho-ERK protein expression at 50 uM preincubated for 4 hrs and followed TNF-alpha stimulation and measured after 10 mins by Western blot analysis; assay type: cell-based; conditions: filed as activator, time 250.0 min
[8] = system: HCT-116; assay: Upregulation of JNK protein expression in TNF-alpha stimulated human HCT-116 cells at 50 uM preincubated for 4 hrs and followed TNF-alpha stimulation and measured after 10 mins by Western blot analysis; assay type: functional, cell-based; conditions: time 250.0 min
[9] = system: DLD-1; assay: Activation of MAPK signaling pathway in TNF-alpha stimulated human DLD-1 cells assessed as increase in phospho-JNK protein expression at 50 uM preincubated for 4 hrs and followed TNF-alpha stimulation and measured after 10 mins by Western blot analysis; assay type: cell-based; conditions: filed as activator, time 250.0 min
[10] = system: HCT-116; assay: Inhibition of TNF-alpha induced MAPK signaling pathway activation in human HCT-116 cells assessed as decrease in phospho-ERK protein expression at 6.25 uM preincubated for 4 hrs and followed TNF-alpha stimulation and measured after 10 mins by Western blot analysis; assay type: cell-based; conditions: time 250.0 min
[11] = system: Mus musculus; assay: Anti-inflammatory activity in po dosed C57BL/6 mouse model of DSS-induced acute ulcerative colitis assessed as reduction in IL-1beta mRNA expression in colon administered once a day for 7 days by RT-PCR analysis; assay type: functional, organism-based; conditions: dose 100-300 mg/kg, time 7.0 day
[12] = Toxicity in C57BL/6 mouse model of DSS-induced acute ulcerative colitis assessed as effect on lung tissue at 100 to 300 mg/kg, po administered once a day for 7 days by H and E staining based analysis; assay type: organism-based; conditions: in vivo, 168 h, dose 100-300 mg/kg, time 7 day
[13] = Toxicity in Kunming mouse assessed as number of mouse survived at 1852 mg/kg, po measured for 15 days; assay type: organism-based; conditions: in vivo, 360 h, time 15 day

For `COC(=O)C1=C(C(=O)OC)C2OC1CC2C#Cc1ccc(C)cc1` (stereo not drawn), the CC50 at 24 h [1] was 12.2 µM, the selectivity ratio [2] was 4.57 and the Activity [3] was 13.21%. The inhibition [4] was “Dose-Dependent Effect”, the inhibition [5] was “Dose-Dependent Effect” and the inhibition [6] was “Active”. For the same compound, the Activity [7] was “Active”, the Activity [8] was “Active” and the Activity [9] was “Active”. The inhibition [10] was “Active”, the Activity [11] was “Dose-Dependent Effect” and the Activity [12] was “Non-Toxic”. It also gave an Activity [13] of 0.
